How the values were obtained:
Assay type in all cases: cell-based, human
[1] = test system: hESC-derived primitive streak; assay: Paraxial versus lateral/cardiac mesoderm specification from primitive streak; details: for paraxial mesoderm induction (qPCR day 2): ACF with DMH1 1 μM or LDN193189 250 nM, CDF with SB-505124 2 μM or A-83-01 1 μM, 24 hours
Method: Subsequently, day 1 anterior primitive streak was briefly washed (DMEM/F12) and differentiated towards day 2 paraxial mesoderm for 24 hours (1 μM A-83-01+3 μM CHIR99021+250 nM LDN-193189+20 ng/mL FGF2). Separately, day 1 mid primitive streak was differentiated towards day 2 lateral mesoderm for 24 hours (1 μM A-83-01+30 ng/mL BMP4+1 μM C59; with 2 μM SB-505124 sometimes used instead of A-83-01).
B) To assess whether FGF/ERK signaling was permissive for both paraxial and lateral/cardiac mesoderm specification, hESCs were differentiated into primitive streak for 24 hours, and then transferred into (i) A-83-01+DM3189 (“AD”; permissive for paraxial mesoderm) or (iii) A-83-01+BMP4+C59 (“AB+C59”; permissive for lateral/cardiac mesoderm) for 24 hours in the presence or absence of a FGF agonist (FGF2, 10-20 ng/mL), an FGFR inhibitor (PD173074, 100 nM) or a MAPK/ERK inhibitor (PD0325901, 500 nM) for 24 hours and qPCR for all experiments was conducted on day 2 (that is, after 48 total hours of hESC differentiation). To assess whether TGFβ signaling altered paraxial, intermediate and lateral/cardiac mesoderm specification, hESCs were differentiated into primitive streak for 24 hours, and then transferred into (ii) DM3189+FGF2 (“DF”; permissive for paraxial mesoderm) or (iv) BMP4+C59 (“B+C59”; permissive for lateral/cardiac mesoderm) for 24 hours in the presence of a TGFβ agonist (Activin, 10-25 ng/mL) or a TGFβR inhibitor (A-83-01, 1 μM) for 24 hours or (v) BMP4 (3 ng/mL)+FGF2 (20 ng/mL) (“B3F20”) for 24 hours in the presence of a TGFβ agonist (Activin, 3-25 ng/mL) or a TGFβR inhibitor (A-83-01, 1 μM) and qPCR for all experiments was conducted on day 2 (that is, after 48 total hours of hESC differentiation). […] Therefore, hESCs were differentiated towards primitive streak for 24 hours, and then subsequently transferred into (i) A-83-01+CHIR99021+FGF2 (ACF) in the presence or absence of one of two BMPR inhibitors (DMH1, 1 μM or LDN193189, 250 nM) for 24 hours and qPCR was conducted on day 2. Alternately, hESC-derived PS was transferred into (ii) CHIR99021+DM3189+FGF2 (CDF) for 24 hours in the presence or absence of a TGFβ agonist (25 ng/mL Activin) or one of two TGFβR inhibitors (SB-505124, 2 μM or A-83-01, 1 μM) for 24 hours and qPCR was conducted on day 2. […] E) To test the role of FGF in lateral mesoderm induction (on day 2 of hESC differentiation), NKX2.5-GFP hESCs were differentiated into mid primitive streak for 24 hours, and then were treated with BMP4+C59+SB505124 in the presence of an FGF agonist (FGF2, 20-50 ng/mL) or a FGFR inhibitor (PD173074, 100 nM) or a MAPK/ERK inhibitor (PD0325901, 500 nM) for 24 hours, and then all cultures were treated with BMP4+C59+SB505124+FGF2 for 24 hours more before being harvested on day 3 for FACS.

day 2 paraxial mesoderm = assay: Early somite progenitor formation from paraxial mesoderm, qPCR; details: 24 hours
Method: Day 2 paraxial mesoderm was briefly washed (DMEM/F12) and further differentiated into day 3 early somite/somitomere precursors for 24 hours (1 μM A-83-01+250 nM LDN-193189+1 μM C59+500 nM PD0325901). Subsequently, day 3 early somites were dorsoventrally patterned into either ventral somites/sclerotome (5 nM 21K+1 μM C59) or dorsal somites/dermomyotome (3 μM CHIR99021+150 nM Vismodegib). Sclerotome induction was conducted for 48-72 hours (leading to day 5-6 ventral somite progenitors). For dermomyotome induction, sometimes dermomyotome was induced in the presence of 50 ng/mL BMP4 to upregulate PAX7 after 48 hours of BMP4+CHIR99021+Vismodegib differentiation (leading to day 5 dermomyotome progenitors). Media was changed 24 hours for all steps.

hESCs = assay: Primitive streak (PS) induction from hESCs, qPCR
Method: As aforementioned, after overnight plating, hPSCs were briefly washed (with DMEM/F12) and then differentiated into either anterior primitive streak (30 ng/mL Activin A+4 μM CHIR99021+20 ng/mL FGF2+100 nM PIK90; for subsequent paraxial mesoderm induction) or mid primitive streak ([…] Activin A+40 ng/mL BMP4+6 μM CHIR99021+20 ng/mL FGF2+100 nM PIK90; for subsequent cardiac mesoderm induction) for 24 hrs.
Total cDNA was diluted 1:10-1:30 in H2O and qPCR was performed with the SensiFAST SYBR Lo-ROX Kit (Bioline) with 10 μL qPCR reactions per well in a 384-well plate: 5.0 μL 2× qPCR Master Mix+4.6 μL cDNA (totaling ˜120 ng of cDNA)+0.4 μL of 10 μM primer stock (5 μM forward+5 μM reverse primers). In general, gene-specific primer pairs were tested for (1) specificity of amplicon amplification (only one peak on a dissociation curve) and (2) linearity of amplicon amplification (linear detection of gene expression in cDNA samples serially diluted seven times over two orders of magnitude, with 90-110% efficiency of amplification deemed acceptably linear). After qPCR plates were prepared by arraying sample-specific cDNAs and gene-specific primers, they were sealed and briefly centrifuged (5 mins). 384-well qPCR plates and their adhesive sealing sheets were obtained from Thermo (AB1384 and AB0558, respectively). qPCR plates were run on a 7900HT Fast Real-Time PCR System (Applied Biosystems) with the following cycling parameters: initial dissociation (95° C., 2 mins) followed by 40 cycles of amplification and SYBR signal detection (95° C. dissociation, 5 seconds; 60° C. annealing, 10 seconds; followed by 72° C. extension, 30 seconds), with a final series of steps to generate a dissociation curve at the end of each qPCR run. During qPCR data analysis, the fluorescence threshold to determine Ct values was set at the linear phase of amplification; other qPCR data analysis methods including qPCR heatmap generation using the GenePattern platform (Broad Institute) were described previously by Loh et al., 2014, the disclosure of which is incorporated herein by reference in its entirety.
E) To assess whether inducing PS in the presence of TGFβ signaling altered its downstream potential to form different kinds of mesoderm, (i) H7 hESCs were differentiated into PS with CHIR99021+FGF2+PIK90 (CFK) for 24 hours in the presence or absence of increasing amounts of Activin (10-100 ng/mL), and then were transferred into paraxial mesoderm induction conditions (A-83-01+CHIR99021+DM3189+FGF2) for 24 hrs, and qPCR was conducted or (ii) H7 hESCs were differentiated into PS with BMP4 (10 ng/mL)+CHIR99021+FGF2+PIK90 (B10CFK) for 24 hours in the presence or absence of increasing amounts of Activin (10-100 ng/mL), and then were transferred into lateral/cardiac mesoderm inductions (A-83-01+BMP4+C59) for 24 hours and qPCR was conducted. […] F) To assess whether inducing PS in the presence of BMP signaling altered its downstream potential to form different kinds of mesoderm, H7 hESCs were differentiated into PS with Activin (10 ng/mL)+CHIR99021+FGF2+PIK90 (A10CFK) for 24 hours in the presence of absence of increasing amounts of BMP4 (1-40 ng/mL), and then were (i) transferred into paraxial mesoderm induction conditions (A-83-01+CHIR99021+DM3189+FGF2) for 24 hrs, and qPCR was conducted or were (ii) transferred into lateral/cardiac mesoderm inductions (A-83-01+BMP4+C59) for 24 hours and qPCR was conducted. […] G) H7 hESCs were differentiated into anterior primitive streak (30 ng/mL Activin+4 μM CHIR99021+20 ng/mL FGF2+100 nM PIK90) in the presence or absence of BMP4 (10 ng/mL) for 24 hours, and then transferred into paraxial mesoderm induction conditions for 24 hours before TBX6 immunostaining was conducted. […]

lateral mesoderm = assay: Forelimb versus hindlimb progenitor specification from lateral mesoderm; details: for competence of lateral mesoderm for forelimb fate: lateral mesoderm induced in presence of retinoid antagonists
Method: Undifferentiated hPSCs (wild-type H7 as well as TBX5-Venus V19-2 H9 hESCs) were maintained in mTeSR1 media on Geltrex-coated plates. As described, they were differentiated into mid primitive streak for 24 hours (D0-1; 30 ng/mL Activin+40 ng/mL BMP4+6 μM CHIR99021+20 ng/mL FGF2+100 nM PIK90) and subsequently differentiated into lateral mesoderm (D1-2; 1 μM A-83-01+30 ng/mL BMP4+1 μM C59), with the inclusion of 50 nM of TTNPB or 2 μM ATRA on D1-2 for trunk lateral mesoderm that was subsequently competent for forelimb differentiation.
Day 2 trunk lateral mesoderm was differentiated into day 3 forelimb progenitors (D2-3; 1 μM A-83-01+1 μM DMH1+3 μM CHIR99021). By contrast, day 2 non-trunk lateral mesoderm was differentiated into day 3 hindlimb progenitors (D2-3; 25 ng/mL Activin+1 μM DMH1+3 μM CHIR99021).

**Q.** What does the source list for `Cl.c1ccc2c(-c3cnn4cc(-c5ccc(N6CCNCC6)cc5)cnc34)ccnc2c1` [LDN193189, 4-[6-[4-(1-Piperazinyl)phenyl]pyrazolo[1,5-a]pyrimidin-3-yl]-quinoline hydrochloride]?
**A.** paraxial mesoderm induction (qPCR day 2) [1]: serve to induce paraxial mesoderm; early somite marker expression (qPCR day 3) (day 2 paraxial mesoderm; CPR with DM3189 250 nM): permissive for expression of early somite markers; PS formation and anterior-posterior patterning (hESCs; ACFK with LDN193189 250 nM or BMP4 3-100 ng/mL): fully abolished PS formation

**Q.** How did the “early somite marker expression (qPCR day 3)” value (day 2 paraxial mesoderm; ACDP with RA 0.5-2 μM) turn out when `CC1=C(/C=C/C(C)=C/C=C/C(C)=C/C(=O)O)C(C)(C)CCC1` [all-trans retinoic acid] was run?
**A.** dispensable for the expression of early somite markers

**Q.** What about the “early somite marker expression (qPCR day 3)” value (day 2 paraxial mesoderm; ACDP with RA 0.5-2 μM, listed as RA) of the same molecule?
**A.** dispensable for early somite formation

**Q.** And the “forelimb transcription factor TBX5 expression on D3” value (lateral mesoderm; RA signaling activated for 24 hours during lateral mesoderm induction (D1-2))?
**A.** paramount for lateral mesoderm to subsequently express key forelimb transcription factor TBX5

**Q.** `Cc1ccc(C2=CCC(C)(C)c3ccc(C#Cc4ccc(C(=O)O)cc4)cc32)cc1` [AGN193109] was tested. Which “competence of lateral mesoderm for forelimb fate” value (lateral mesoderm) did it give?
**A.** incompetent to subsequently assume a forelimb fate

**Q.** For `CC1(C)CC=C(C#Cc2ccccc2)c2cc(/C=C/c3ccc(C(=O)O)cc3)ccc21` [BMS493], which “competence of lateral mesoderm for forelimb fate” value (lateral mesoderm) is on record?
**A.** incompetent to subsequently assume a forelimb fate

**Q.** Which “paraxial mesoderm induction (qPCR day 2)” value [1] does the source give for `CC(C)Oc1ccc(-c2cnc3c(-c4ccnc5ccccc45)cnn3c2)cc1` [DMH1, 4-[6-[4-(1-Methylethoxy)phenyl]pyrazolo[1,5-a]pyrimidin-3-yl]-quinoline] here?
**A.** serve to induce paraxial mesoderm

**Q.** What does the source list for `Cc1cccc(-c2nn(C(=S)Nc3ccccc3)cc2-c2ccnc3ccccc23)n1` [A-83-01, 3-(6-Methyl-2-pyridinyl)-N-phenyl-4-(4-quinolinyl)-1H-pyrazole-1-carbothioamide]?
**A.** paraxial mesoderm induction (qPCR day 2) [1]: serve to induce paraxial mesoderm; NKX2.5-GFP+ cardiac mesoderm induction (FACS day 3) ([1]; BMP4 (50 ng/mL)+C59, 48 hours, SB-505124 2 μM or A-83-01 1 μM, P<0.01): increased NKX2.5-GFP^+ cardiac mesoderm induction; early somite marker expression (qPCR day 3) (day 2 paraxial mesoderm; CDPR with A-83-01 1 μM): permissive for expression of early somite markers; PS differentiation (hESCs; CHIR99021+20 ng/mL FGF2+100 nM PIK90 with 2 μM SB-505124 or 1 μM A-83-01): strongly impairs PS differentiation

B1: WNT3A: Wnt agonist, WNT family ligand (protein, UniProt P56704 19-352, looked up)
Protein Wnt-3a: SYPIWWSLAVGPQYSSLGSQPILCASIPGLVPKQLRFCRNYVEIMPSVAEGIKIGIQECQHQFRGRRWNCTTVHDSLAIFGPVLDKATRESAFVHAIASAGVAFAVTRSCAEGTAAICGCSSRHQGSPGKGWKWGGCSEDIEFGGMVSREFADARENRPDARSAMNRHNNEAGRQAIASHMHLKCKCHGLSGSCEVKTCWWSQPDFRAIGDFLKDKYDSASEMVVEKHRESRGWVETLRPRYTYFKVPTERDLVYYEASPNFCEPNPETGSFGTRDRTCNVSSHGIDGCDLLCCGRGHNARAERRREKCRCVFHWCCYVSCQECTRVYDVHTCK
**Q.** Which “PS marker expression (qPCR)” value (hESCs; 24 hours in A3B3F20, 300 ng/mL WNT3A or 0.5-8 μM CHIR99021) does the source give for B1 here?
**A.** broadly induces both anterior (TBX6) and mid/posterior (FOXF1, MESP1) PS markers
